Structures can show the parent of a compound that is named as a salt.
Tests used:
myeloperoxidase [1] = target: T1, myeloperoxidase (Homo sapiens, UniProt P05164); assay: MPO Peroxidation Assay (Amplex Red Assay); format: biochemical; details: potency range class
T1 sequence (P05164 49-745): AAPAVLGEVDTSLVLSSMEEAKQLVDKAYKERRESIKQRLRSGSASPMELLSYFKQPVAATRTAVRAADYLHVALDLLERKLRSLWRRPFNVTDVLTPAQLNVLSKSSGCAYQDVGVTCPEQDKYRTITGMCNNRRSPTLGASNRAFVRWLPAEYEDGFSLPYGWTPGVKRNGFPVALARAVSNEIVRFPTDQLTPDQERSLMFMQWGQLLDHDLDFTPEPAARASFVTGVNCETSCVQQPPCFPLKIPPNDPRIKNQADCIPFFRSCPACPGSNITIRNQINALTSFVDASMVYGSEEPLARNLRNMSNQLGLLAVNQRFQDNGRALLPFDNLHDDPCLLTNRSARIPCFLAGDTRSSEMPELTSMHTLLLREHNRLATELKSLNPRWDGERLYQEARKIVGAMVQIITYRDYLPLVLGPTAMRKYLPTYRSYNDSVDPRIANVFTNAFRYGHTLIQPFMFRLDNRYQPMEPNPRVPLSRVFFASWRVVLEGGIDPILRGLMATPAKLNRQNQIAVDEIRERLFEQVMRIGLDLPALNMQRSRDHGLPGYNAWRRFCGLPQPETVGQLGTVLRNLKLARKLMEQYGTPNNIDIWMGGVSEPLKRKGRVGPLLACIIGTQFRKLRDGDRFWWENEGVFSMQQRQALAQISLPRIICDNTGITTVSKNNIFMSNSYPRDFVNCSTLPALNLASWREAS

myeloperoxidase [2] = target: T1, myeloperoxidase; assay: MPO Chlorination Assay (APF Assay); format: biochemical; details: potency range class
[3] = read-out: Amplex Red Assay IC50 value

SMILES	IC50 (myeloperoxidase [1]; [3])	IC50 (myeloperoxidase [2]; read-out: APF Assay IC50 value)	IC50 (myeloperoxidase [1]; Amplex Red Assay IC50 value (μM))	IC50 (myeloperoxidase [2]; APF Assay IC50 value (μM))
Nc1cc(C(CCN[C@@H]2C[C@H](c3ccccc3)Cc3ccccc32)c2ccccc2)c2nn[nH]c2n1 (stereo partly drawn) [Example 83, 7-(1-phenyl-3-{[(1R,3R)-3-phenyl-1,2,3,4-tetrahydronaphthalen-1-yl]amino}propyl)-3H-[1,2,3]triazolo [4,5-b]pyridin-5-amine]	1 to 10 µM	0.001 to 0.1 µM		
Nc1cc(C(CCO[C@H]2CC[C@H](c3ccccc3)CC2)c2ccccc2)c2nn[nH]c2n1 (some centres unmarked) [Example 223, 7-(1-phenyl-3-((4-phenylcyclohexyl)oxy)propyl)-3H-[1,2,3]triazolo[4,5-b]pyridin-5-amine]	0.101 to 0.999 µM	0.101 to 0.999 µM		
Nc1cc(C(CCNC2CC(c3ccccc3)C2)c2ccccc2)c2nn[nH]c2n1 (single isomer, unassigned) [Example 80, 7-{1-phenyl-3-[(3-phenylcyclobutyl)amino]propyl}-3H-[1,2,3]triazolo[4,5-b] pyridin-5-amine]	0.101 to 0.999 µM	0.001 to 0.1 µM		
Nc1cc(C(CCCN2CCC3(CC2)OCc2ccccc23)c2ccccc2)c2nn[nH]c2n1 (centres unmarked) [Example 210, 7-(1-phenyl-4-{3H-spiro[2-benzofuran-1,4′-piperidine]-1′-yl}butyl)-3H-[1,2,3]triazolo [4,5-b]pyridin-5-amine]	0.101 to 0.999 µM	0.001 to 0.1 µM		
Nc1cc(C(CCN2CCC(Cc3ccccc3)CC2)c2ccccc2)c2nn[nH]c2n1 (centres unmarked) [Example 187, 7-[3-(4-benzylpiperidin-1-yl)-1-phenylpropyl]-3H-[1,2,3]triazolo [4,5-b]pyridin-5-amine]	1 to 10 µM	0.001 to 0.1 µM		
Nc1cc(C(CCNC2c3ccccc3CC2c2ccccc2)c2ccccc2)c2nn[nH]c2n1 (centres unmarked) [Example 55, 7-{1-phenyl-3-[(2-phenyl-2,3-dihydro-1H-inden-1-yl)amino]propyl}-3H-[1,2,3] triazolo[4,5-b] pyridin-5-amine]	1 to 10 µM	0.101 to 0.999 µM		
Nc1cc([C@H](CCN2CCC(O)(Cc3ccccc3)CC2)c2ccccc2)c2nn[nH]c2n1 [Example 185, 1-[(3R)-3-{5-amino-3H-[1,2,3]triazolo [4,5-b]pyridin-7-yl}-3-phenylpropyl]-4-benzylpiperidin-4-ol]	1 to 10 µM	0.001 to 0.1 µM		
N#Cc1ccccc1C(CCN[C@H]1CC[C@H](c2ccccc2)CC1)c1cc(N)nc2[nH]nnc12 (stereo partly drawn) [Example 161, 2-(1-{5-amino-3H-[1,2,3]triazolo [4,5-b]pyridin-7-yl}-3-{[(trans)-4-phenylcyclohexyl]amino}propyl) benzonitrile]	1 to 10 µM	0.101 to 0.999 µM		
Nc1cc([C@H](Cc2nc3ccc(-c4ccc(Cl)cc4)cc3[nH]2)c2ccccc2)c2nn[nH]c2n1 [Example 250]	0.101 to 0.999 µM	0.001 to 0.1 µM		
Nc1cc(C(CCNS(=O)(=O)c2ccccc2)c2ccccc2)c2nn[nH]c2n1 (centres unmarked) [Example 15, N-(3-(5-amino-3H-[1,2,3]triazolo[4,5-b]pyridin-7-yl)-3-phenylpropyl)benzenesulfonamide, TFA]	0.001 to 0.1 µM	0.101 to 0.999 µM		
Nc1cc(C(CCNC(Cc2ccccc2)c2ccccc2)c2ccccc2)c2nn[nH]c2n1 (centres unmarked) [Example 47, 7-{3-[(1,2-diphenylethyl)amino]-1-phenylpropyl}-3H-[1,2,3]triazolo[4,5-b]pyridin-5-amine]	1 to 10 µM	0.101 to 0.999 µM		
N#Cc1cccc(C(CCNC23CCC(c4ccccc4)(CC2)CC3)c2cc(N)nc3[nH]nnc23)c1 (centres unmarked) [Example 171, 7-(1-(3-cyanophenyl)-3-((4-phenylbicyclo[2.2.2]octan-1-yl)amino)propyl)-3H-[1,2,3]triazolo[4,5-b]pyridin-5-amine]	0.001 to 0.1 µM	0.001 to 0.1 µM		
CC(C)(NCCC(c1ccccc1)c1cc(N)nc2[nH]nnc12)c1ccccc1 (centres unmarked) [Example 14, 7-{1-phenyl-3-[(2-phenylpropan-2-yl)amino]propyl}-3H-[1,2,3]triazolo[4,5-b]pyridin-5-amine]	0.101 to 0.999 µM	0.101 to 0.999 µM		
Nc1cc(C(CCC(=O)Cc2ccccc2)c2ccccc2)c2nn[nH]c2n1 (centres unmarked) [Example 233, 5-(5-amino-3H-[1,2,3]triazolo[4,5-b]pyridin-7-yl)-1,5-diphenylpentan-2-one]	0.001 to 0.1 µM	0.101 to 0.999 µM		
Nc1cc([C@H](CCCN2[C@@H]3CC[C@H]2C[C@](O)(c2ccc(Cl)cc2)C3)c2ccccc2)c2nn[nH]c2n1 [Example 216, (1R,3R,5S)-8-[(4R)-4-{5-amino-3H-[1,2,3]triazolo [4,5-b]pyridin-7-yl}-4-phenylbutyl]-3-(4-chlorophenyl)-8-azabicyclo[3.2.1] octan-3-ol]	0.101 to 0.999 µM	0.001 to 0.1 µM		
Nc1cc([C@H](Cc2nc3c(-c4cccc(Cl)c4)cccc3[nH]2)c2ccccc2)c2nn[nH]c2n1 [Example 247, (R)-7-(2-(4-(3-chlorophenyl)-1H-benzo[d]imidazol-2-yl)-1-phenylethyl)-3H-[1,2,3]triazolo [4,5-b]pyridin-5-amine]	0.101 to 0.999 µM	0.001 to 0.1 µM		
Nc1cc(C(CCN[C@@H]2CCc3c(Cl)cccc32)c2ccccc2)c2nn[nH]c2n1 (stereo partly drawn) [Example 65, 7-(3-{[(1R)-4-chloro-2,3-dihydro-1H-inden-1-yl]amino}-1-phenylpropyl)-3H-[1,2,3]triazolo[4,5-b]pyridin-5-amine]	0.101 to 0.999 µM	0.101 to 0.999 µM		
Nc1cc(C(CCNC(=O)c2ccccc2)c2ccccc2)c2nn[nH]c2n1 (centres unmarked) [Example 39, N-(3-(5-amino-3H-[1,2,3]triazolo[4,5-b]pyridin-7-yl)-3-phenylpropyl)benzamide]	0.101 to 0.999 µM	1 to 10 µM		
N#CC1(c2ccccc2)CCC(NCCC(c2ccccc2)c2cc(N)nc3[nH]nnc23)CC1 (centres unmarked) [Example 177, 4-((3-(5-amino-3H-[1,2,3]triazolo[4,5-b]pyridin-7-yl)-3-phenylpropyl)amino)-1-phenylcyclohexane-1-carbonitrile]	0.101 to 0.999 µM	0.001 to 0.1 µM		
CC(C)(C)CNCCC(c1ccccc1)c1cc(N)nc2[nH]nnc12 (centres unmarked) [Example 20, 7-{3-[(2,2-dimethylpropyl)amino]-1-phenylpropyl}-3H-[1,2,3]triazolo[4,5-b]pyridin-5-amine]	0.101 to 0.999 µM	1 to 10 µM		
Nc1cc([C@H](CCCN2CC[C@H]3C[C@@H]2Cc2ccccc23)c2ccccc2)c2nn[nH]c2n1 [Example 219, 7-((R)-1-phenyl-4-((2R,6S)-1,4,5,6-tetrahydro-2,6-methanobenzo[d]azocin-3(2H)-yl)butyl)-3H-[1,2,3] triazolo[4,5-b] pyridin-5-amine]			0.101 to 0.999 µM	0.001 to 0.1 µM
CC1CC2(NCCC(c3ccccc3)c3cc(N)nc4[nH]nnc34)CCC1(c1ccccc1)CC2 (centres unmarked) [Example 147, 7-[3-({3-methyl-4-phenylbicyclo[2.2.2]octan-1-yl}amino)-1-phenylpropyl]-3H-[1,2,3]triazolo [4,5-b]pyridin-5-amine]	0.001 to 0.1 µM	0.001 to 0.1 µM		
COc1ccncc1[C@H]1CC[C@@H](NCCC(c2ccccc2)c2cc(N)nc3[nH]nnc23)CC1 (some centres unmarked) [Example 138, 7-(1-phenyl-3-{[(1s,4s)-4-(4-methoxypyridin-3-yl)cyclohexyl]amino}propyl)-3H-[1,2,3]triazolo [4,5-b]pyridin-5-amine]	1 to 10 µM	1 to 10 µM		
CC1C[C@@H](NCCC(c2ccccc2)c2cc(N)nc3[nH]nnc23)c2ccccc21 (stereo partly drawn) [Example 88, 7-(3-{[(1R)-3-methyl-2,3-dihydro-1H-inden-1-yl]amino}-1-phenylpropyl)-3H-[1,2,3]triazolo[4,5-b]pyridin-5-amine]	0.101 to 0.999 µM	0.101 to 0.999 µM		
Nc1cc([C@H](CCCN2CCC(Cc3ccccc3)C2)c2ccccc2)c2nn[nH]c2n1 (stereo partly drawn) [Example 221, 7-[(1R)-4-(3-benzylpyrrolidin-1-yl)-1-phenylbutyl]-3H-[1,2,3]triazolo[4,5-b]pyridin-5-amine]	0.101 to 0.999 µM	0.101 to 0.999 µM		
Nc1cc(C(CCN[C@@H]2CCc3c(Cl)cc(Cl)cc32)c2ccccc2)c2nn[nH]c2n1 (stereo partly drawn) [Example 123, 7-(3-{[(1R)-4,6-dichloro-2,3-dihydro-1H-inden-1-yl]amino}-1-phenylpropyl)-3H-[1,2,3]triazolo[4,5-b]pyridin-5-amine]	0.101 to 0.999 µM	0.101 to 0.999 µM		
Nc1cc([C@H](Cc2nc3c(-c4ccccc4)cc(Cl)cc3[nH]2)c2ccccc2)c2nn[nH]c2n1 [Example 244, (R)-7-(2-(6-chloro-4-phenyl-1H-benzo[d]imidazol-2-yl)-1-phenylethyl)-3H-[1,2,3]triazolo[4,5-b]pyridin-5-amine]	0.101 to 0.999 µM	0.001 to 0.1 µM		
Nc1cc([C@H](CCNC23CCC(c4ccccc4)(CC2)C(=O)C3)c2ccccc2)c2nn[nH]c2n1 [Example 182, 4-{[(3R)-3-{5-amino-3H-[1,2,3]triazolo [4,5-b]pyridin-7-yl}-3-phenylpropyl]amino}-1-phenylbicyclo [2.2.2]octan-2-one]	0.101 to 0.999 µM	0.001 to 0.1 µM		
